Laboratory results reported in PMC6911004, “Fragment-based screening identifies molecules targeting the substrate-binding ankyrin repeat domains of tankyrase” (Scientific Reports, 2019).
In brackets after ≈: the same amount, converted by molar mass. Entries after “also recorded” stand apart in the source; their conditions may differ.

What was measured:
TNKS2 ARC4 = target: T1, TNKS2 ARC4 (Homo sapiens, UniProt Q9H2K2); assay: WaterLOGSY NMR assay; type: binding; settings: for waterLOGSY: wild-type TNKS2 ARC4 20 μM, negative NOE = binder
T1 construct: The cell was filled with TNKS2 ARC4 (488–649); His6-GST; made in house; host or cells: E. coli
T1 sequence (Q9H2K2 488-649): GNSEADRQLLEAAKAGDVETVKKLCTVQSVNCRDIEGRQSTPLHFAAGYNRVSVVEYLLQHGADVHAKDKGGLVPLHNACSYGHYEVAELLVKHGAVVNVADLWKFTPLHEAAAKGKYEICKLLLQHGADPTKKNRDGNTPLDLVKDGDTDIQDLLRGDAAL
Protocol: We next sought close structural analogues of hit fragments 3 and 5 to gain early insights into structure-activity relationships (SAR) and binding modes of hit fragments. We initially tested the analogues using both relaxation-edited and waterLOGSY NMR assays against TNKS2 ARC4 (Table 1), followed by protein-observed NMR if binding was detected in both ligand-observed NMR experiments.
Fragments were dispensed in duplicate into a 384-well plate (250 nL, 100 mM stock in DMSO). Wells were backfilled with DMSO (2.25 μL). Tankyrase ARC protein (47.5 μL in 25 mM HEPES-NaOH pH7.5, 100 mM NaCl, 2 mM TCEP, 10% D2O; 20 μM final protein concentration in the assay) was added to the samples containing protein; buffer only (47.5 μL) was added to the compound-only samples. Solutions were transferred to 1.7 mm NMR tubes using a Gilson liquid handling system. ^1H NMR spectra were recorded, with the DMSO signal dampened. The bulk water signal at 4.7 ppm was selectively inverted. Data were processed using Bruker Topspin 3.14[66].

[1] = Fragment solubility assay by NMR; type: physicochemical; settings: NMR buffer (HEPES-NaOH) with 5% DMSO, aqueous with cosolvent or surfactant or cyclodextrin, kinetic from dmso stock; NMR buffer pH 7.5, 5% DMSO, 500 μM nominal
Protocol: Fragments were dispensed into a 384-well plate (250 nL of 100 mM stock in DMSO, 500 μM final concentration) using an ECHO acoustic dispenser. DMSO (2.25 μL) was added, then NMR buffer (47.5 μL, 25 mM HEPES-NaOH pH 7.5, 100 mM NaCl, 1 mM TCEP, 10% D2O). The plate was centrifuged (1 min, 1000 × g) before the solutions were transferred to 1.7 mm NMR tubes using a Gilson liquid handling system. ^1H NMR spectra were recorded with the DMSO and water signals dampened. 100 μM caffeine was used as an external standard to quantify the ligand signals.

TNKS2 ARC4 (488–649) = target: T2, TNKS2 ARC4 (488–649) (Homo sapiens, UniProt Q9H2K2); assay: Protein-observed 1H-15N HSQC NMR titration (chemical shift perturbation); type: binding; settings: for 15N NMR / 15N HSQC chemical shift perturbations (CSPs): 15N-labelled TNKS2 ARC4
T2 construct: The cell was filled with TNKS2 ARC4 (488–649); His6-GST (cleaved yes); made in house; host or cells: E. coli BL21-CodonPlus (DE3)-RIL
T2 sequence (Q9H2K2 488-649): T1 sequence (Q9H2K2 488-649)
Text: We next tested validated hits from both the DSF and NMR screens against TNKS2 ARC4 using protein-observed NMR. This included 16 compounds in total: 14 fragments identified by DSF and confirmed to bind TNKS2 ARC5 by both relaxation-edited and waterLOGSY methods and two unique fragments identified by NMR and confirmed to bind TNKS2 ARC4 by both ligand-observed NMR methods. We used the 3BP2 TBM peptide as a positive control. To directly identify fragment binding sites on the ARC, we performed a full backbone and partial side-chain assignment of TNKS2 ARC4, doubly labelled with ^15N and ^13C isotopes. The assignment details have been reported elsewhere. […] The different binding regimes may distinguish primary interaction hotspots that are engaged robustly when a peptide is first recruited (slow exchange) from secondary binding sites in the ARC that become occupied once primary binding hotspots are engaged; these may be more dynamic (fast exchange).
We then titrated compounds against ^15N-labelled TNKS2 ARC4, initially at protein:compound ratios of 1:1 and 1:3. […] We confirmed that the CSPs were not caused by pH changes during the titration by measuring the pH of the peptide and fragment stocks (at 3 mM) in assay buffer. Consistent with TBM-competitive binding of fragments 3 and 5, we identified several peaks that shifted in both fragment and 3BP2 TBM peptide titrations. […] However, the solubility of fragments 3 and 5 in assay buffer limited the maximum concentration achievable, and so complete saturation was not reached. This confounded affinity measurements and more extensive analyses of the fragment binding sites by protein-observed NMR.
^15N-labelled TNKS2 ARC4 (488–649) (300 μM final concentration; 5 μL of 3 mM stock) in NMR buffer (45 μL, 25 mM HEPES-NaOH pH 7.5, 100 mM NaCl, 1 mM TCEP, 10% D2O) was used as the baseline sample. Peptide titration samples (Table 6) were prepared by diluting the 16-mer 3BP2 peptide with NMR buffer (45 μL), then adding TNKS2 ARC4 (300 μM final concentration; 5 μL of 3 mM stock). Separate samples were prepared for each concentration point. Fragment titration samples (Table 7) were prepared by diluting fragments in NMR buffer (25 mM HEPES-NaOH pH 7.5, 100 mM NaCl, 1 mM TCEP, 10% D2O) and backfilling with DMSO to keep a constant DMSO concentration of 5%. ^15N-labelled TNKS2 ARC4 (300 μM final concentration; 5 μL of 3 mM stock) was added. Protein with 5% DMSO alone was used as the baseline. Separate samples were prepared for each concentration point. ^1H-^15N HSQC spectra were acquired over 3 h, with 64 scans and a spectrum width of 16.00 ppm for ^1H and 29.00 ppm for ^15N. The pH of the peptide and fragment stocks (at 3 mM) was confirmed to exclude the possibility that peak shifts were due to changes in pH during the titration.
Peaks that shifted were picked manually in each spectrum. The chemical shifts for each peak were measured and exported into Microsoft Excel, where the change in chemical shift from baseline was calculated for hydrogen and nitrogen shifts. The average Euclidean distance shifted (d) was then calculated using Eq. 2, weighting the different nuclei:2 d=√{1/2[δH2+(α.δN2)]},whereα=0.14
Values of d were plotted against ligand concentration in GraphPad Prism, and fitted with Eq. 3:3 Δδobs=Δδmax{([P]t+[L]t+Kd)−[([P]t+[L]t+Kd)^2−4[P]t[L]t]^1/2/2[P]t
Kd values were calculated for each peak that shifted individually. The mean of all shifting peaks was then calculated to give an apparent Kd value.

[2] = TNKS2 ARC4 300 μM, fragment up to 4800 μM, 5% DMSO

solubility [1] [µM] | NMR Kd (apparent, mean of shifting peaks) (TNKS2 ARC4 (488–649); [2]) | waterLOGSY: competition with 3BP2 TBM peptide (TNKS2 ARC4) | Kd (TNKS2 ARC4 (488–649); TNKS2 ARC4 300 μM, fragment up to 4800 μM, 5% DMSO, read-out: NMR Kd (apparent, mean of shifting peaks)) [µM] | Molecule | waterLOGSY (TNKS2 ARC4) | 15N NMR / 15N HSQC chemical shift perturbations (CSPs) (TNKS2 ARC4 (488–649)) | waterLOGSY, compound alone (TNKS2 ARC4; no protein added)
220 (≈ 48.2 µg/mL) | no saturation |  |  | O=C(NCc1ccco1)c1ccc(F)cc1 [compound 3] | negative NOE; also recorded: binding | significant CSPs; also recorded: substantial CSPs; also recorded: CSPs observed | 
410 (≈ 115 µg/mL) | no saturation | peptide competition |  | O=C(NCc1ccc(F)cc1)c1ccc2nccnc2c1 [compound 5] | negative NOE; also recorded: binding | significant CSPs; also recorded: substantial CSPs; also recorded: CSPs observed | 
650 (≈ 165 µg/mL) |  |  | 1050 | O=C(NCc1ccco1)c1ccc2nccnc2c1 [compound 9] | one peak has negative NOE; also recorded: binding; also recorded: negative NOE signal | substantial CSPs; also recorded: significant CSPs | no NOE
 |  |  |  | LPHLQRSPPDGQSFRSW [3BP2 16-mer peptide, 16-mer TBM peptide derived from 3BP2, W added for A280, N-terminus acetylated, C-terminus amide-capped; positive control, reference compound] |  | significant chemical shift perturbations | 
